Conditions: 303.16 K, Liquid, Vibrating tube method

CCCC(=O)OCC(COC(=O)CCC)(COC(=O)CCC)COC(=O)CCC [pentaerythritol tetrabutyrate]
Conditions	mass density [kg/m3]
15938 kPa	1052.3
15972 kPa	1052.3
16014 kPa	1052.4
16048 kPa	1052.3
16090 kPa	1052.4
16125 kPa	1052.5
16167 kPa	1052.5
16209 kPa	1052.5
16244 kPa	1052.5
16286 kPa	1052.6
16323 kPa	1052.5
16366 kPa	1052.5
16409 kPa	1052.7
16446 kPa	1052.6
16489 kPa	1052.7
16526 kPa	1052.7
16571 kPa	1052.7
16616 kPa	1052.7
16654 kPa	1052.7
16700 kPa	1052.7
16739 kPa	1052.8
16786 kPa	1052.8
16833 kPa	1052.9
16872 kPa	1053
16906 kPa	1052.9
16947 kPa	1053
16988 kPa	1052.9
17023 kPa	1053
17065 kPa	1053
17100 kPa	1053
17142 kPa	1053
17185 kPa	1052.9
17221 kPa	1053
17265 kPa	1053.2
17301 kPa	1053.1
17346 kPa	1053.2
17383 kPa	1053.1
17428 kPa	1053.2
17464 kPa	1053.2
17508 kPa	1053.2
17552 kPa	1053.1
17588 kPa	1053.3
17632 kPa	1053.3
17669 kPa	1053.4
17713 kPa	1053.5
17758 kPa	1053.5
17796 kPa	1053.4
17840 kPa	1053.4
17887 kPa	1053.5
17924 kPa	1053.4
17970 kPa	1053.5
18009 kPa	1053.6
18056 kPa	1053.6
18094 kPa	1053.5
18141 kPa	1053.6
18187 kPa	1053.6
18226 kPa	1053.6
18275 kPa	1053.6
18315 kPa	1053.9
18363 kPa	1053.8
18405 kPa	1053.7
18448 kPa	1053.9
18497 kPa	1053.9
18546 kPa	1054
18588 kPa	1053.9
18638 kPa	1054
18681 kPa	1054.1
18732 kPa	1054
18784 kPa	1054
18828 kPa	1054.1
18881 kPa	1054.2
18917 kPa	1054
18955 kPa	1054
18996 kPa	1054.2
19030 kPa	1054.2
19063 kPa	1054.2
19103 kPa	1054.2
19136 kPa	1054.2
19176 kPa	1054.3
19209 kPa	1054.3
19248 kPa	1054.3
19288 kPa	1054.4
19321 kPa	1054.3
19361 kPa	1054.4
19395 kPa	1054.3
19436 kPa	1054.4
19477 kPa	1054.5
19512 kPa	1054.4
19553 kPa	1054.5
19587 kPa	1054.5
19629 kPa	1054.5
19665 kPa	1054.4
19707 kPa	1054.6
19741 kPa	1054.6
19783 kPa	1054.5
19825 kPa	1054.7
19861 kPa	1054.7
19904 kPa	1054.6
19940 kPa	1054.8
19985 kPa	1054.6
20021 kPa	1054.8
20064 kPa	1054.8
20101 kPa	1054.9
20144 kPa	1054.8
20189 kPa	1054.9
20226 kPa	1054.9
20270 kPa	1054.9
20308 kPa	1054.8
20479 kPa	1055
20525 kPa	1054.9
20562 kPa	1055.1
20609 kPa	1055.1
20648 kPa	1055.1
20695 kPa	1055.1
20735 kPa	1055.3
20783 kPa	1055.2
20823 kPa	1055.3
20871 kPa	1055.3
20911 kPa	1055.3
20958 kPa	1055.2
20997 kPa	1055.3
21046 kPa	1055.4
21087 kPa	1055.4
21317 kPa	1055.5
21366 kPa	1055.5
21458 kPa	1055.5
21510 kPa	1055.6
21552 kPa	1055.6
21603 kPa	1055.7
21646 kPa	1055.7
21698 kPa	1055.6
21749 kPa	1055.8
21792 kPa	1055.7
21845 kPa	1055.9
21889 kPa	1055.9
21942 kPa	1055.8
21986 kPa	1055.9
22040 kPa	1055.9
22093 kPa	1056
22138 kPa	1056
22194 kPa	1056
22240 kPa	1056.1
22297 kPa	1056.1
22344 kPa	1056.2
22399 kPa	1056.2
22444 kPa	1056.1
22501 kPa	1056.1
22549 kPa	1056.2
22606 kPa	1056.2
22664 kPa	1056.3
22714 kPa	1056.3
22776 kPa	1056.4
22829 kPa	1056.3
22885 kPa	1056.5
22917 kPa	1056.4
22959 kPa	1056.5
22993 kPa	1056.4
23026 kPa	1056.4
23065 kPa	1056.6
23104 kPa	1056.5
23137 kPa	1056.6
23177 kPa	1056.6
23211 kPa	1056.7
23251 kPa	1056.7
23285 kPa	1056.7
23325 kPa	1056.7
23359 kPa	1056.7
23399 kPa	1056.7
23440 kPa	1056.7
23475 kPa	1056.8
23516 kPa	1056.9
23551 kPa	1056.9
23593 kPa	1056.9
23628 kPa	1056.8
23670 kPa	1056.9
23705 kPa	1056.8
23747 kPa	1056.8
23782 kPa	1057
23825 kPa	1057
23860 kPa	1057
23902 kPa	1057.1
23946 kPa	1057.1
23981 kPa	1057
24023 kPa	1057.1
24066 kPa	1057
24101 kPa	1057.2
24145 kPa	1057.1
24182 kPa	1057.3
24225 kPa	1057.1
24269 kPa	1057.2
24306 kPa	1057.2
24350 kPa	1057.3
24387 kPa	1057.4
24432 kPa	1057.3
24470 kPa	1057.3
24515 kPa	1057.5
24560 kPa	1057.4
24597 kPa	1057.4
24642 kPa	1057.4
24680 kPa	1057.5
24726 kPa	1057.6
24772 kPa	1057.6
24810 kPa	1057.5
24858 kPa	1057.5
24897 kPa	1057.6
24944 kPa	1057.7
24991 kPa	1057.6
25031 kPa	1057.5
25070 kPa	1057.7
25117 kPa	1057.7
25165 kPa	1057.7
25204 kPa	1057.8
25252 kPa	1057.8
25292 kPa	1057.9
25340 kPa	1057.9
25389 kPa	1058
25431 kPa	1057.9
25481 kPa	1057.9
25523 kPa	1058
25574 kPa	1058.1
25618 kPa	1058.1
25669 kPa	1058
25712 kPa	1058.1
25765 kPa	1058.1
25816 kPa	1058.1
25851 kPa	1058.2
25889 kPa	1058.2
25926 kPa	1058.1
25957 kPa	1058
25995 kPa	1058.2
26027 kPa	1058.1
26066 kPa	1058.3
26106 kPa	1058.3
26139 kPa	1058.4
26171 kPa	1058.3
26210 kPa	1058.3
26243 kPa	1058.4
26282 kPa	1058.4
26320 kPa	1058.4
26352 kPa	1058.5
26392 kPa	1058.5
26430 kPa	1058.3
26463 kPa	1058.4
26504 kPa	1058.6
26538 kPa	1058.6
26574 kPa	1058.6
26615 kPa	1058.5
26648 kPa	1058.6
26688 kPa	1058.6
26728 kPa	1058.6
26761 kPa	1058.6
26802 kPa	1058.6
26836 kPa	1058.7
26876 kPa	1058.8
26918 kPa	1058.7
26952 kPa	1058.7
26994 kPa	1058.8
27028 kPa	1058.8
27070 kPa	1058.9
27110 kPa	1058.8
27145 kPa	1058.8
27188 kPa	1058.8
27223 kPa	1059.1
27266 kPa	1058.9
27301 kPa	1059
27343 kPa	1058.9
27385 kPa	1059.2
27420 kPa	1059
27464 kPa	1059
27499 kPa	1059
27542 kPa	1059.1
27585 kPa	1059.1
27622 kPa	1059.2
27666 kPa	1059.2
27702 kPa	1059.2
27747 kPa	1059.1
27784 kPa	1059.3
27828 kPa	1059.2
27865 kPa	1059.3
27909 kPa	1059.4
27953 kPa	1059.4
27991 kPa	1059.3
28035 kPa	1059.4
28079 kPa	1059.4
28117 kPa	1059.3
28162 kPa	1059.4
28200 kPa	1059.5
28244 kPa	1059.4
28290 kPa	1059.5
28328 kPa	1059.5
28374 kPa	1059.6
28419 kPa	1059.7
